In patent publication US3985779A, “M-phenoxyphenyl propionic acid derivatives and preparation thereof” (Eisai Co., Ltd., priority 1973, dated 1976):
Read-outs that look alike come from different tables or passages of the source.

Legend:
stomachs of the rats = assay type: in vivo; conditions: score 0 (nothing unusual) to 10 (considerable irritability with bleeding)
From the text: Observation of gastric irritability
Gastric irritability due to oral administration of the compounds as edema inhibitory agent was studied by macroscopical observation of the dissected stomachs of the rats which had been employed for determination of the edema inhibitions mentioned in the preceding paragraphs. The degrees of the irritability observed were scored in the 0 to 10 ratings depending upon the extent of errosions and bleedings of the stomachs, wherein the rating of 0(zero) means "nothing unusual", the rating of 10 means a state of considerable gastric irritability with bleeding and the remainders mean the intermediate degree of gastric irritability.

writhing syndrome = assay: Analgesic activity: antagonism to acetic acid writhing syndrome in mice (Experiment J); assay type: in vivo, mice (dd strain male)
Protocol: Analgesic activity of the compound of the present invention in comparison with the known compounds.
Analgesic activity of the compound was tested as the measure of antagonism to writhing syndrome appeared when 0.1 ml/10g of 0.7% acetic acid was intraperitoneally injected to the dd strain male mice having 17 - 20 grs. body weight which had been abstinence from food for 18 hours.
The compounds under test were orally administered in a form of suspension in a 5% aqueous solution of gum arabic. After one hour from the administration, the onset times required for the writhing syndrome were scored.
In another Experiment in the combined use of the compounds under test and Codeine phosphate, 10 - 20 mg/kg of Codeine phosphate were orally administered immediatly after the oral administration of the compounds under test.

yeast-induced pyrexia = assay: Antipyretic activity to the yeast-treated rats (Experiment I); assay type: in vivo, rats (Wistar strain male)
Protocol: To Wistar strain male rats having about 300 - 350 grs. body weight, an aqueous suspension of yeast was subcutaneously injected to induce pyrexia.
At the lapse of 4 hours since the dose of the yeast suspension, the compounds under test given in hereinaftermentioned Table 10 in a form of suspension in a 5% gum arabic aqueous solution are orally administered. The rectal temperatures of the rats were measured periodically by means of a thermister-type thermometer sold by Japan Koden K.K. As control, said 5% gum arabic aqueous solution alone was administered.

in vivo = conditions: mouse, po
Protocol: Comparison of toxicity of the phenyl propionic acid derivatives of the present invention and that of the other known anti-inflammatory agents was carried out in mice.

ARRS-induced edema = assay: Inhibitory activity on anti-rat-rabbit serum (ARRS)-induced edema in rats (Experiment D); assay type: in vivo
Protocol: Inhibitory activity on anti-rat-rabbit serum (ARRS)-induced edema in rats Similar Experiments was carried out by using ARRS as irritant substance.

[1] = tested on: Carrageenin-induced edema; assay: Inhibitory activity on Carrageenin-induced Edema in rats (Experiment A); assay type: in vivo, rats (male Wistar); conditions: 3 hours after Carrageenin
Protocol: Inhibitory activity on Carrageenin-induced Edema in rats
Carrageenin was used as the agent for inducing edema and 5 male rats of Wistar strain having body weight of about 150 grs. after fasting for 16-17 hours were used as test animals. The inhibitory activity of the test compounds were determined with the paw edema method in accordance with Winter C. A. et al; Proc. Soc. Exp. Biol. Med. 111, 544 (1962).
The compounds were suspended in an aqueous solution of gum arabic and the same were orally administered to the rats at 1 hour before the injection of Carrageenin.
The observation was effected by measuring, after 3 hours the administration of the Carrageenin, the enlarged volumes of hind paw of the rats.

Kaolin-induced edema = assay: Inhibitory activity on Kaolin-induced Edema in Rats (Experiment B); assay type: in vivo
Dextran-induced edema = assay: Inhibitory activity on dextran-induced edema in rats (Experiment C); assay type: in vivo
Protocol: Inhibitory activity on dextran-induced edema in rats Experiment was carried out in the manner same as those of the preceding Experiments in which dextran was employed as irritant substance.

CC(=O)Oc1ccccc1C(=O)O [Aspirin]
Degree of gastric irritability (stomachs of the rats; 100 mg/kg oral): 10 | Onset time of writhing syndrome, mean ± S.E. (writhing syndrome; 10 mg/kg p.o. combined with Codeine Phosphate 10 mg/kg): 5.4 ± 0.4 min | Onset time of writhing syndrome, mean ± S.E. (writhing syndrome; 10 mg/kg p.o. combined with Codeine Phosphate 20 mg/kg): 9.6 ± 1.8 min | Onset time of writhing syndrome, mean ± S.E. (writhing syndrome; 160 mg/kg p.o. combined with Codeine Phosphate 10 mg/kg): 6.2 ± 0.6 min | Onset time of writhing syndrome, mean ± S.E. (writhing syndrome; 160 mg/kg p.o. combined with Codeine Phosphate 20 mg/kg): 11.1 ± 1.6 min | minimal effective dose (writhing syndrome; Mus musculus, 1 h, single oral administration, read-out: dose with significant antagonism / retardation of writhing syndrome): 160 mg/kg | Onset time of writhing syndrome, mean ± S.E. (writhing syndrome; test compound alone, 10 mg/kg p.o.): 5.2 ± 1.4 min | Onset time of writhing syndrome, mean ± S.E. (writhing syndrome; test compound alone, 160 mg/kg p.o.): 5.9 ± 0.8 min | body temperature relative to normal (in words) (yeast-induced pyrexia; 320 mg/kg p.o.): body temperature injuriously depressed below the normal body temperature | Change in rectal temperature, mean ± S.E. (yeast-induced pyrexia; 1 hr, 80 mg/kg p.o.): -0.18 ± 0.10 | Change in rectal temperature, mean ± S.E. (yeast-induced pyrexia; 1 hr, 160 mg/kg p.o.): -0.48 ± 0.23 | Change in rectal temperature, mean ± S.E. (yeast-induced pyrexia; 1 hr, 320 mg/kg p.o.): -0.75 ± 0.10 | Change in rectal temperature, mean ± S.E. (yeast-induced pyrexia; 3 hrs, 80 mg/kg p.o.): -0.25 ± 0.18 | Change in rectal temperature, mean ± S.E. (yeast-induced pyrexia; 3 hrs, 160 mg/kg p.o.): -1.05 ± 0.18 | Change in rectal temperature, mean ± S.E. (yeast-induced pyrexia; 3 hrs, 320 mg/kg p.o.): -1.68 ± 0.28 | Change in rectal temperature, mean ± S.E. (yeast-induced pyrexia; 5 hrs, 80 mg/kg p.o.): -0.20 ± 0.12 | Change in rectal temperature, mean ± S.E. (yeast-induced pyrexia; 5 hrs, 160 mg/kg p.o.): -0.95 ± 0.18 | Change in rectal temperature, mean ± S.E. (yeast-induced pyrexia; 5 hrs, 320 mg/kg p.o.): -1.30 ± 0.29 | LD50 (in vivo): 1600 mg/kg

CC(C(=O)O)c1cccc(Oc2ccccc2)c1 (stereo not drawn) [Compound (2), reference compound]
Degree of gastric irritability (stomachs of the rats; 50 mg/kg oral): 3 | % of Inhibition (ARRS-induced edema; after 2 hrs, oral 8 mg/kg): 7% | Edema D. ± S.E. (ARRS-induced edema; after 2 hrs, oral 8 mg/kg): .634 ± .048 | % of Inhibition (ARRS-induced edema; after 2 hrs, oral 40 mg/kg): 19% | Edema D. ± S.E. (ARRS-induced edema; after 2 hrs, oral 40 mg/kg): .553 ± .038 | % of Inhibition (ARRS-induced edema; after 3 hrs, oral 8 mg/kg): 16% | Edema D. ± S.E. (ARRS-induced edema; after 3 hrs, oral 8 mg/kg): .599 ± .040 | % of Inhibition (ARRS-induced edema; after 3 hrs, oral 40 mg/kg): 26% | Edema D. ± S.E. (ARRS-induced edema; after 3 hrs, oral 40 mg/kg): .531 ± .026 | % of Inhibition ([1]; oral 8.0 mg/kg): 31% | Edema density ± S.E. ([1]; oral 8.0 mg/kg): .373 ± .039 | % of Inhibition ([1]; oral 10.0 mg/kg, 10 mg/kg): 35% | Edema density ± S.E. ([1]; oral 10.0 mg/kg, 10 mg/kg): .352 ± .063 | Edema D. ± S.E. (Kaolin-induced edema; after 3 hrs, oral 8 mg/kg): .418 ± .040 | % of Inhibition (Kaolin-induced edema; after 3 hrs, oral 40 mg/kg): 49% | Edema D. ± S.E. (Kaolin-induced edema; after 3 hrs, oral 40 mg/kg): .212 ± .023 | % of Inhibition (Kaolin-induced edema; after 5 hrs, oral 8 mg/kg): 11% | Edema D. ± S.E. (Kaolin-induced edema; after 5 hrs, oral 8 mg/kg): .499 ± .048 | % of Inhibition (Kaolin-induced edema; after 5 hrs, oral 40 mg/kg): 48% | Edema D. ± S.E. (Kaolin-induced edema; after 5 hrs, oral 40 mg/kg): .292 ± .031 | Edema D. ± S.E. (Kaolin-induced edema; after 7 hrs, oral 8 mg/kg): .612 ± .067 | % of Inhibition (Kaolin-induced edema; after 7 hrs, oral 40 mg/kg): 33% | Edema D. ± S.E. (Kaolin-induced edema; after 7 hrs, oral 40 mg/kg): .406 ± .057 | % of Inhibition (Dextran-induced edema; after 2 hrs, oral 8 mg/kg): 5% | Edema D. ± S.E. (Dextran-induced edema; after 2 hrs, oral 8 mg/kg): .795 ± .031 | % of Inhibition (Dextran-induced edema; after 2 hrs, oral 40 mg/kg): 1% | Edema D. ± S.E. (Dextran-induced edema; after 2 hrs, oral 40 mg/kg): .846 ± .013 | % of Inhibition (Dextran-induced edema; after 3 hrs, oral 8 mg/kg): 1% | Edema D. ± S.E. (Dextran-induced edema; after 3 hrs, oral 8 mg/kg): .749 ± .026 | % of Inhibition (Dextran-induced edema; after 3 hrs, oral 40 mg/kg): -3% | Edema D. ± S.E. (Dextran-induced edema; after 3 hrs, oral 40 mg/kg): .773 ± .027

COc1ccc2c(c1)c(CC(=O)O)c(C)n2C(=O)c1ccc(Cl)cc1 [INDOMETHACIN]
LD50 (in vivo): 37.5 mg/kg
